Data on 21 compounds can be found in PubChem BioAssay AID328 (DTP/NCI, 2004).

Several values for one entry are separate records, joined by “and”; a condition that tells them apart may be missing. Equal entries are not always repeated. Toxic doses and inconclusive results are not listed.

In this experiment the test system is BDF1 mice, P388 leukemia ip, median survival T/C. Description: NCI In Vivo Anticancer Drug Screen. Data for tumor model P388 Leukemia (intraperitoneal) in B6D2F1 (BDF1) mice. The conditions noted are these: endpoint: median survival time, higher = longer survival. In short, it runs like this:
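Read-out is survival of treated animals expressed relative to the vehicle group, as a T/C ratio.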

Where [1] appears, read: dose: 100.0 mg/kg/injection, schedule: Q04DX003 (ip), vehicle: saline with Tween-80.
Where [2] appears, read: dose: 200.0 mg/kg/injection, schedule: Q04DX003 (ip), vehicle: saline with Tween-80.
Where [3] appears, read: dose: 400.0 mg/kg/injection, schedule: Q04DX003 (ip), vehicle: saline with Tween-80.
Setting [4] is: dose: 100.0 mg/kg/injection, schedule: Q01DX009 (ip), vehicle: saline with Tween-80.
The mark [5] stands for this setting: dose: 200.0 mg/kg/injection, schedule: Q01DX009 (ip), vehicle: saline with Tween-80.
Where [6] appears, read: dose: 50.0 mg/kg/injection, schedule: Q01DX009 (ip), vehicle: saline with Tween-80.
The mark [7] stands for this setting: dose: 100.0 mg/kg/injection, schedule: Q04DX003 (ip), vehicle: saline.
[8] abbreviates: dose: 25.0 mg/kg/injection, schedule: Q01DX009 (ip), vehicle: saline with Tween-80.

Regarding `Cc1cc(C)c(OC(=O)CNC(=O)C(C)NC(=O)OC(C)(C)C)c(C)c1` (stereo not drawn), the T/C by setting is: (dose: 50.0 mg/kg/injection, schedule: Q01DX005 (ip), vehicle: Klucel (hydroxypropylcellulose) (HPC)) 91 % of control; (dose: 100.0 mg/kg/injection, schedule: Q01DX005 (ip), vehicle: Klucel (hydroxypropylcellulose) (HPC)) 97 % of control; (dose: 200.0 mg/kg/injection, schedule: Q01DX005 (ip), vehicle: Klucel (hydroxypropylcellulose) (HPC)) 91 % of control.
In the case of `Cc1cccc(C)c1NC(=O)c1ccccc1Cl`, the T/C is 113 % of control under setting [1], 109 % of control under setting [2] and 104 % of control under setting [3].
Turning to `O=C1C(Cl)=C(Sc2nc3ccccc3s2)C(=O)c2ccccc21`, the T/C (dose: 50.0 mg/kg/injection, schedule: Q01DX005 (ip), vehicle: saline with Tween-80) is 112 % of control.
For `O=P(c1ccccc1)(N1CC1)N1CC1`, the T/C runs as follows: (dose: 7.5 mg/kg/injection, schedule: Q01DX009 (ip), vehicle: saline) 109 % of control; (dose: 15.0 mg/kg/injection, schedule: Q01DX009 (ip), vehicle: saline) 123 % of control; (dose: 30.0 mg/kg/injection, schedule: Q01DX009 (ip), vehicle: saline) 119 % of control.
Consider `O=C(/C=C/c1ccc(Cl)cc1)c1ccc(Cl)cc1`, for which the T/C is 100 % of control under setting [4]; 90 % of control under setting [5]; 90 % of control (dose: 400.0 mg/kg/injection, schedule: Q01DX009 (ip), vehicle: saline with Tween-80).
As to `Clc1ccc2c(c1)nnn2OC1CCCC1`, the T/C runs as follows: under setting [6], 97 % of control; under setting [4], 88 % of control; under setting [5], 90 % of control.
Regarding `Oc1cc(Cl)c(Cl)c(Cl)c1`, the T/C by setting is: (dose: 100.0 mg/kg/injection, schedule: Q04DX002 (ip), vehicle: saline with Tween-80) 102 % of control; (dose: 200.0 mg/kg/injection, schedule: Q04DX002 (ip), vehicle: saline with Tween-80) 98 % of control; (dose: 400.0 mg/kg/injection, schedule: Q04DX002 (ip), vehicle: saline with Tween-80) 97 % of control.
For the compound `CC(=O)OCc1ccc[n+](C2=C([O-])C(=O)C([n+]3cccc(COC(C)=O)c3)=C([O-])C2=O)c1`, the T/C is, setting by setting: under setting [6], 104 % of control; under setting [4], 98 % of control; under setting [5], 102 % of control.
`OCC1(O)CCC1`: the T/C is 95 % of control (dose: 75.0 mg/kg/injection, schedule: Q01DX009 (ip), vehicle: saline); 96 % of control under setting [7]; 104 % of control (dose: 150.0 mg/kg/injection, schedule: Q01DX009 (ip), vehicle: saline); 103 % of control (dose: 200.0 mg/kg/injection, schedule: Q04DX003 (ip), vehicle: saline); 109 % of control (dose: 300.0 mg/kg/injection, schedule: Q01DX009 (ip), vehicle: saline); 100 % of control (dose: 400.0 mg/kg/injection, schedule: Q04DX003 (ip), vehicle: saline).
In the case of `O=C(Nc1ccc(C2=NCCN2)cc1)Nc1cccc(NC(=O)Nc2ccc(C3=NCCN3)cc2)c1`, the T/C was 185 % of control and 190 % of control (dose: 60.0 mg/kg/injection, schedule: Q01DX010 (ip), vehicle: saline); 185 % of control (dose: 120.0 mg/kg/injection, schedule: Q01DX010 (ip), vehicle: saline); 245 % of control and 220 % of control (dose: 240.0 mg/kg/injection, schedule: Q01DX010 (ip), vehicle: saline); 120 % of control (dose: 480.0 mg/kg/injection, schedule: Q01DX010 (ip), vehicle: saline).
Consider `O.O.O=C(CC(=O)C(F)(F)F)C(F)(F)F.O=C(CC(=O)C(F)(F)F)C(F)(F)F.[Ni]`, for which the T/C (dose: 200.0 mg/kg/injection, schedule: Q01DX001 (ip), vehicle: Klucel (hydroxypropylcellulose) (HPC)) is 104 % of control.
`CS(=O)c1ccccc1C(=O)O` (stereo not drawn): the T/C under setting [1] is 106 % of control, the T/C under setting [2] is 110 % of control and the T/C under setting [3] is 109 % of control.
As to `CCC(=O)NC(C(=O)NC(C(=O)NC(CC(C)C)C(O)CC(=O)NC(C)C(=O)NC(CC(C)C)C(O)CC(=O)O)C(C)C)C(C)C` (stereo not drawn), the T/C reads like this: (dose: 12.5 mg/kg/injection, schedule: Q01DX009 (ip), vehicle: saline with Tween-80) 100 % of control; under setting [8], 109 % of control; under setting [6], 109 % of control and 114 % of control; under setting [4], 94 % of control.
For `C/C=C/C(OCC)OCC`, the T/C was 95 % of control (dose: 6.25 mg/kg/injection, schedule: Q04DX003 (ip), vehicle: water); 105 % of control (dose: 12.5 mg/kg/injection, schedule: Q01DX009 (ip), vehicle: water); 91 % of control (dose: 12.5 mg/kg/injection, schedule: Q04DX003 (ip), vehicle: water); 91 % of control (dose: 25.0 mg/kg/injection, schedule: Q01DX009 (ip), vehicle: water); 92 % of control (dose: 25.0 mg/kg/injection, schedule: Q04DX003 (ip), vehicle: water); 100 % of control (dose: 50.0 mg/kg/injection, schedule: Q01DX009 (ip), vehicle: water). For the same compound, the T/C (dose: 50.0 mg/kg/injection, schedule: Q04DX003 (ip), vehicle: water) was 105 % of control; the T/C (dose: 100.0 mg/kg/injection, schedule: Q01DX009 (ip), vehicle: water) was 98 % of control; the T/C (dose: 100.0 mg/kg/injection, schedule: Q04DX003 (ip), vehicle: water) was 113 % of control; the T/C (dose: 200.0 mg/kg/injection, schedule: Q01DX009 (ip), vehicle: water) was 109 % of control; the T/C (dose: 200.0 mg/kg/injection, schedule: Q04DX003 (ip), vehicle: water) was 111 % of control and 113 % of control; the T/C (dose: 300.0 mg/kg/injection, schedule: Q04DX003 (ip), vehicle: water) was 111 % of control.
Take `CCCCC(CC)COP(OCC(CC)CCCC)OCC(CC)CCCC` (stereo not drawn): the T/C runs as follows: under setting [1], 109 % of control; under setting [2], 100 % of control; under setting [3], 118 % of control.
In the case of `CCSC(=O)N1c2ccc(C)cc2C=CC1C#N` (stereo not drawn), the T/C was 113 % of control (dose: 62.5 mg/kg/injection, schedule: Q01DX001 (ip), vehicle: saline with Tween-80); 104 % of control (dose: 125.0 mg/kg/injection, schedule: Q01DX001 (ip), vehicle: saline with Tween-80); 122 % of control (dose: 250.0 mg/kg/injection, schedule: Q01DX001 (ip), vehicle: saline with Tween-80).
Regarding `C=C1C(=O)OC2C3OC(C)(CCC(OC(C)=O)C3COC(C)=O)CC(OC(=O)/C(=C\C)COC(C)=O)C12` (stereo not drawn), the T/C is, setting by setting: (dose: 25.0 mg/kg/injection, schedule: Q01DX009 (ip), vehicle: Klucel (hydroxypropylcellulose) (HPC)) 106 % of control; (dose: 50.0 mg/kg/injection, schedule: Q01DX009 (ip), vehicle: Klucel (hydroxypropylcellulose) (HPC)) 106 % of control; (dose: 100.0 mg/kg/injection, schedule: Q01DX009 (ip), vehicle: Klucel (hydroxypropylcellulose) (HPC)) 118 % of control.
Turning to `Cc1nc[nH]c1[N+](=O)[O-]`, the T/C reads like this: under setting [8], 100 % of control; under setting [4], 86 % of control.
`COc1cccc(N=C(N)N=C(N)N)c1`: the T/C was 95 % of control (dose: 25.0 mg/kg/injection, schedule: Q04DX003 (ip), vehicle: saline); 100 % of control (dose: 50.0 mg/kg/injection, schedule: Q01DX001 (ip), vehicle: saline); 91 % of control (dose: 50.0 mg/kg/injection, schedule: Q04DX003 (ip), vehicle: saline); 100 % of control (dose: 100.0 mg/kg/injection, schedule: Q01DX001 (ip), vehicle: saline); 95 % of control under setting [7].
As to `C=C1C(=O)OC2/C=C(\C)CC(O)/C=C(\C)CC(OC(=O)/C(=C\C)COC(C)=O)C12` (stereo not drawn), the T/C by setting is: (dose: 20.0 mg/kg/injection, schedule: Q01DX009 (ip), vehicle: saline) 122 % of control; (dose: 44.0 mg/kg/injection, schedule: Q01DX009 (ip), vehicle: saline) 150 % of control; (dose: 66.0 mg/kg/injection, schedule: Q01DX009 (ip), vehicle: saline) 122 % of control.
In the case of `CCC[CH2][Sn]1([CH2]CCC)[O]OC(c2ccc(OC)cc2)[O]1` (stereo not drawn), the T/C reads like this: (dose: 3.12 mg/kg/injection, schedule: Q01DX009 (sc), vehicle: olive oil, sesame oil, peanut oil) 112 % of control; (dose: 6.25 mg/kg/injection, schedule: Q01DX009 (sc), vehicle: olive oil, sesame oil, peanut oil) 99 % of control.
